# Results reported in patent US5747511A, “Benzothiophene analogs as antiviral agents” (SRI International, priority 1995, dated 1998).
# Tests used:
# [1] = test system: MRC-5 cells; test: evidence of cytotoxicity by microscopy after 72 hours; type: cell-based; parameters: unit not given beside the values; details: 37° C., microscopic cytotoxicity
# Method: (§1) Continuous passaged MRC-5 cells obtained from the American Type Culture Collection (Bethesda, Md.) were used for testing of herpes-type virus, with growth medium consisting of Minimum Essential Medium (MEM) supplemented with 0.1% NaHCO3 and […] gentamicin.
# (§2) To a 96 well microtiter plate containing an established 24 hour monolayer of cells from which the medium has been decanted was added 0.1 mL of varying (one-half log10) concentrations of test compound, which incubated on the cell 15 minutes, after which 0.1 mL of virus in a concentration of 320 cell culture 50% infectious doses (CCID50)/0.1 mL was added. The plate was covered with plastic wrap and incubated at 37° C. The cells were examined microscopically after 72 hours for evidence of cytotoxicity and for viral cytopathic effect (CPE).
# [2] = test system: cytomegalovirus; test: in vitro antiviral evaluation, viral cytopathic effect (CPE) by microscopy after 72 hours; type: cell-based; details: TI column of Table 1 (equals CD50/ED50); 4320 min
# Method: The compounds prepared in the previous Examples were evaluated in vitro as antiviral agents against cytomegalovirus, as follows.
# The herpes virus strain employed was Strain McCrae of type 1 herpes (thymidine kinase positive virus) (HSV-1TK^+). This strain was prepared and titered in MA-104 cells and frozen at -90° C. until use. Also used were strain HF (HSV-1TK^-), strain E194 (HSV-2), NJB strain (MCMV), and strain AD169 (HCMV).
# as §1, §2
smiles,measurement,setting,value
Nc1cc2ccncc2c2sc3ccccc3c12 [Compound 1],CD50,[1],> 10
same,TI,[2],> 100
